# Results as given in PubChem BioAssay (NCI).
#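 Method: 48-hour compound exposure of cells in 96-well plates, five concentrations, linear interpolation of endpoints. Abbreviation: GI50, concentration required for 50% inhibition of growth. TGI marks complete inhibition of growth.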
# Assays:
# Assay in all cases: NCI anticancer screen, dose series, 48 h
# NCI-H226 lung = test system: NCI-H226 lung
# SR leukemia = test system: SR leukemia
# EKVX NSCLC = test system: EKVX NSCLC
# M14 melanoma = test system: M14 melanoma
# SN12C renal = test system: SN12C renal
# RPMI-8226 leukemia = test system: RPMI-8226 leukemia
# 786-0 renal = test system: 786-0 renal
# HOP-92 NSCLC = test system: HOP-92 NSCLC
# SNB-19 CNS = test system: SNB-19 CNS
# MALME-3M melanoma = test system: MALME-3M melanoma
# K-562 leukemia = test system: K-562 leukemia
# HOP-62 NSCLC = test system: HOP-62 NSCLC
# RXF 393 renal = test system: RXF 393 renal
# UACC-62 melanoma = test system: UACC-62 melanoma
# NCI-H522 lung = test system: NCI-H522 lung
# CAKI-1 renal = test system: CAKI-1 renal
# U251 CNS = test system: U251 CNS
# OVCAR-5 ovarian = test system: OVCAR-5 ovarian
# SK-OV-3 ovarian = test system: SK-OV-3 ovarian
# MCF7 breast = test system: MCF7 breast
# A498 renal = test system: A498 renal
# ACHN renal = test system: ACHN renal
# LOX IMVI melanoma = test system: LOX IMVI melanoma
# HL-60(TB) leukemia = test system: HL-60(TB) leukemia
# T-47D breast = test system: T-47D breast
# OVCAR-3 ovarian = test system: OVCAR-3 ovarian
# NCI-H23 lung = test system: NCI-H23 lung
# OVCAR-8 ovarian = test system: OVCAR-8 ovarian
# SNB-75 CNS = test system: SNB-75 CNS
# HS 578T breast = test system: HS 578T breast
# OVCAR-4 ovarian = test system: OVCAR-4 ovarian
# SK-MEL-28 melanoma = test system: SK-MEL-28 melanoma
# IGROV1 ovarian = test system: IGROV1 ovarian
# MDA-MB-435 = test system: MDA-MB-435
# HCC-2998 colon = test system: HCC-2998 colon
# KM12 colon = test system: KM12 colon
# TK-10 renal = test system: TK-10 renal
# HT29 colon = test system: HT29 colon
# NCI/ADR-RES ovarian = test system: NCI/ADR-RES ovarian
# NCI-H460 lung = test system: NCI-H460 lung
# COLO 205 colon = test system: COLO 205 colon
# BT-549 breast = test system: BT-549 breast
# SK-MEL-5 melanoma = test system: SK-MEL-5 melanoma
# SF-268 CNS = test system: SF-268 CNS
# DU-145 prostate = test system: DU-145 prostate
# PC-3 prostate = test system: PC-3 prostate
# UO-31 renal = test system: UO-31 renal
# SF-295 CNS = test system: SF-295 CNS
# HCT-116 colon = test system: HCT-116 colon
# MDA-MB-231 breast = test system: MDA-MB-231 breast
# UACC-257 melanoma = test system: UACC-257 melanoma
# MOLT-4 leukemia = test system: MOLT-4 leukemia
# SK-MEL-2 melanoma = test system: SK-MEL-2 melanoma
# CCRF-CEM leukemia = test system: CCRF-CEM leukemia
# A549 NSCLC = test system: A549 NSCLC
# SW-620 colon = test system: SW-620 colon
# HCT-15 colon = test system: HCT-15 colon
# SF-539 CNS = test system: SF-539 CNS
compound,measurement,setting,value
CN1CCN(Cc2ccc(NC(=O)c3cncc(C#Cc4cnc5ccc(OCCCS(C)(=O)=O)nn45)c3)cc2C(F)(F)F)CC1,GI50,NCI-H226 lung,131 nM
same,TGI,NCI-H226 lung,1030 nM
same,GI50,SR leukemia,207 nM
same,TGI,SR leukemia,1470 nM
same,GI50,EKVX NSCLC,1120 nM
same,TGI,EKVX NSCLC,4280 nM
same,GI50,M14 melanoma,171 nM
same,TGI,M14 melanoma,701 nM
same,GI50,SN12C renal,415 nM
same,TGI,SN12C renal,2200 nM
same,GI50,RPMI-8226 leukemia,1190 nM
same,TGI,RPMI-8226 leukemia,3410 nM
same,GI50,786-0 renal,359 nM
same,TGI,786-0 renal,1170 nM
same,GI50,HOP-92 NSCLC,101 nM
same,TGI,HOP-92 NSCLC,393 nM
same,GI50,SNB-19 CNS,1290 nM
same,TGI,SNB-19 CNS,4460 nM
same,GI50,MALME-3M melanoma,128 nM
same,TGI,MALME-3M melanoma,576 nM
same,GI50,K-562 leukemia,12.3 nM
same,TGI,K-562 leukemia,2170 nM
same,GI50,HOP-62 NSCLC,833 nM
same,TGI,HOP-62 NSCLC,2760 nM
same,GI50,RXF 393 renal,803 nM
same,TGI,RXF 393 renal,1630 nM
same,GI50,UACC-62 melanoma,571 nM
same,TGI,UACC-62 melanoma,1520 nM
same,GI50,NCI-H522 lung,460 nM
same,TGI,NCI-H522 lung,1280 nM
same,GI50,CAKI-1 renal,459 nM
same,TGI,CAKI-1 renal,2680 nM
same,GI50,U251 CNS,554 nM
same,TGI,U251 CNS,2610 nM
same,GI50,OVCAR-5 ovarian,892 nM
same,TGI,OVCAR-5 ovarian,4570 nM
same,GI50,SK-OV-3 ovarian,868 nM
same,TGI,SK-OV-3 ovarian,3470 nM
same,GI50,MCF7 breast,213 nM
same,TGI,MCF7 breast,2830 nM
same,GI50,A498 renal,863 nM
same,TGI,A498 renal,1620 nM
same,GI50,ACHN renal,1390 nM
same,TGI,ACHN renal,4460 nM
same,GI50,LOX IMVI melanoma,305 nM
same,TGI,LOX IMVI melanoma,1020 nM
same,GI50,HL-60(TB) leukemia,229 nM
same,TGI,HL-60(TB) leukemia,802 nM
same,GI50,T-47D breast,783 nM
same,TGI,T-47D breast,12200 nM
same,GI50,OVCAR-3 ovarian,795 nM
same,TGI,OVCAR-3 ovarian,3040 nM
same,GI50,NCI-H23 lung,420 nM
same,TGI,NCI-H23 lung,1560 nM
same,GI50,OVCAR-8 ovarian,1000 nM
same,TGI,OVCAR-8 ovarian,4330 nM
same,GI50,SNB-75 CNS,338 nM
same,TGI,SNB-75 CNS,1130 nM
same,GI50,HS 578T breast,318 nM
same,TGI,HS 578T breast,1660 nM
same,GI50,OVCAR-4 ovarian,547 nM
same,TGI,OVCAR-4 ovarian,1930 nM
same,GI50,SK-MEL-28 melanoma,796 nM
same,TGI,SK-MEL-28 melanoma,2550 nM
same,GI50,IGROV1 ovarian,258 nM
same,TGI,IGROV1 ovarian,2450 nM
same,GI50,MDA-MB-435,221 nM
same,TGI,MDA-MB-435,1000 nM
same,GI50,HCC-2998 colon,687 nM
same,TGI,HCC-2998 colon,2750 nM
same,GI50,KM12 colon,5 nM
same,TGI,KM12 colon,1400 nM
same,GI50,TK-10 renal,1130 nM
same,TGI,TK-10 renal,2940 nM
same,GI50,HT29 colon,475 nM
same,TGI,HT29 colon,1890 nM
same,GI50,NCI/ADR-RES ovarian,8490 nM
same,TGI,NCI/ADR-RES ovarian,34100 nM
same,GI50,NCI-H460 lung,311 nM
same,TGI,NCI-H460 lung,953 nM
same,GI50,COLO 205 colon,377 nM
same,TGI,COLO 205 colon,1150 nM
same,GI50,BT-549 breast,469 nM
same,TGI,BT-549 breast,1390 nM
same,GI50,SK-MEL-5 melanoma,775 nM
same,TGI,SK-MEL-5 melanoma,1740 nM
same,GI50,SF-268 CNS,690 nM
same,TGI,SF-268 CNS,1720 nM
same,GI50,DU-145 prostate,691 nM
same,TGI,DU-145 prostate,3790 nM
same,GI50,PC-3 prostate,873 nM
same,TGI,PC-3 prostate,4970 nM
same,GI50,UO-31 renal,1330 nM
same,TGI,UO-31 renal,3770 nM
same,GI50,SF-295 CNS,1090 nM
same,TGI,SF-295 CNS,4770 nM
same,GI50,HCT-116 colon,67.3 nM
same,TGI,HCT-116 colon,594 nM
same,GI50,MDA-MB-231 breast,166 nM
same,TGI,MDA-MB-231 breast,1050 nM
same,GI50,UACC-257 melanoma,1030 nM
same,TGI,UACC-257 melanoma,3470 nM
same,GI50,MOLT-4 leukemia,272 nM
same,TGI,MOLT-4 leukemia,3710 nM
same,GI50,SK-MEL-2 melanoma,216 nM
same,TGI,SK-MEL-2 melanoma,783 nM
same,GI50,CCRF-CEM leukemia,213 nM
same,TGI,CCRF-CEM leukemia,22400 nM
same,GI50,A549 NSCLC,1090 nM
same,TGI,A549 NSCLC,5930 nM
same,GI50,SW-620 colon,193 nM
same,TGI,SW-620 colon,1050 nM
same,GI50,HCT-15 colon,1340 nM
same,TGI,HCT-15 colon,4260 nM
same,GI50,SF-539 CNS,164 nM
same,TGI,SF-539 CNS,906 nM
